Reference: US11535643B2, “Macrolides with modified desosamine sugars and uses thereof” (President and Fellows of Harvard College, priority 2015, dated 2022)
In brackets after ≈: the same amount, converted by molar mass.

Assays:
Type in all cases: cell-based
S. pneumoniae = experiment: Broth dilution MIC determination (CLSI) against S. pneumoniae strains
Description: (§1) Minimum inhibitory concentrations (MICs) for macrolides described herein have been determined for unique strains of S. aureus, S. pneumoniae, S. pyogenes, E. faecalis, E. coli, A. baumannii, K. pneumoniae, P. aeruginosa, and H. influenzae, including several multidrug-resistant strains, with a special focus on macrolide resistant mechanisms. Azithromycin and solithromycin were included as control compounds. CLSI standard procedures for broth dilution MIC determination were used. Data for exemplary compounds described herein is shown in Tables M1-M7 and in Tables N1-N4.

E. coli = experiment: Broth dilution MIC determination (CLSI) against E. coli strains
Description: as §1

E. faecalis = experiment: Broth dilution MIC determination (CLSI) against E. faecalis strains
Description: as §1

S. aureus = experiment: Broth dilution MIC determination (CLSI) against S. aureus strains
Description: as §1

P. aeruginosa = experiment: Broth dilution MIC determination (CLSI) against P. aeruginosa strains
Description: as §1

S. pyogenes = experiment: Broth dilution MIC determination (CLSI) against S. pyogenes strains
Description: as §1

A. baumannii = experiment: Broth dilution MIC determination (CLSI) against A. baumannii strains
Description: as §1

K. pneumoniae = experiment: Broth dilution MIC determination (CLSI) against K. pneumoniae strains
Description: as §1, with “used.” for “used. Data for exemplary compounds described herein is shown in Tables M1-M7 and in Tables N1-N4.”

[1] = E. coli ATCC25922, strain MP-4 (Table N4)
[2] = E. coli Clinical, strain MP-541 (Table N4)
[3] = E. coli clinical-cErmB, strain MP-532 (Table N4)
[4] = E. coli tolC, strain MP-9 (Table N4)
[5] = S. aureus ATCC29213, strain MP-12 (Table N4)
[6] = S. aureus BAA 977 iErm, strain MP-17 (Table N4)
[7] = S. aureus Clinical-cErm, strain MP-513 (Table N4)
[8] = S. aureus USA300-msr(a), strain MP-549 (Table N4)
[9] = P. aeruginosa ATCC27853, strain MP-3 (Table N4)
[10] = P. aeruginosa PAO1, strain MP-7 (Table N4)
[11] = P. aeruginosa mex-oprM-deletion, strain MP-8 (Table N4)
[12] = A. baumannii ATCC 19606, strain MP-15 (Table N4)
[13] = A. baumannii Clinical-AZT low, strain MP-577 (Table N4)
[14] = A. baumannii Clinical-MDR, strain MP-576 (Table N4)
[15] = K. pneumoniae ATCC 10031, strain MP-14 (Table N4)
[16] = K. pneumoniae Clinical, strain MP-548 (Table N4)
[17] = K. pneumoniae Clinical-MDR, strain MP-546 (Table N4)

SMILES: CCC1OC(=O)C(C)C(=O)C(C)C(OC2OC(CNCc3ccc(F)cc3)CC(N(C)C)C2O)C(C)(OC)CC(C)CNC(C)C2N(CCCCn3cc(-c4cccc(N)c4)nn3)C(=O)OC12C (stereo not drawn) [FSM-120391]
- MIC S. pneumoniae ATCC49619 (S. pneumoniae; ATCC49619, Strain No. MP-21): <0.03 µg/mL
- MIC S. pneumoniae mefA (S. pneumoniae; Strain No. MP-626 UNT-038): 0.06 µg/mL (≈ 0.0631 µM)
- MIC S. pneumoniae mefA (S. pneumoniae; Strain No. MP-627 UNT-039): 0.125 µg/mL (≈ 0.131 µM)
- MIC E. coli ATCC25922 (E. coli; ATCC25922, Strain No. MP-4): 4 µg/mL (≈ 4.21 µM)
- MIC E. coli ATCC25922:tolC (E. coli; ATCC25922:tolC, Strain No. MP-9): 0.25 µg/mL (≈ 0.263 µM)
- MIC E. coli clinical (E. coli; clinical, Strain No. MP541): 8 µg/mL (≈ 8.41 µM)
- MIC E. coli clinical-cErm (E. coli; clinical-cErm, Strain No. MP532): >64 µg/mL
- MIC E. faecalis ATCC29212 (E. faecalis; ATCC29212, Strain No. MP-24): 1 µg/mL (≈ 1.05 µM)
- MIC E. faecalis van resistant (E. faecalis; van resistant, Strain No. UNT-039): >64 µg/mL
- MIC S. aureus ATCC29213 (S. aureus; ATCC29213, Strain No. MP-12): 4 µg/mL (≈ 4.21 µM)
- MIC S. aureus ATCCBAA-977 (S. aureus; ATCCBAA-977, Strain No. MP-17): 4 µg/mL (≈ 4.21 µM)
- MIC S. aureus (MRSA) GISA USA600 (S. aureus; GISA USA600, Strain No. MP-619 UNT-120): >64 µg/mL
- MIC S. aureus (MRSA) ST-228 cErm (S. aureus; ST-228 cErm, Strain No. MP-513): >64 µg/mL
- MIC S. aureus (MRSA) USA100 (S. aureus; USA100, Strain No. MP-618 UNT-096): >64 µg/mL
- MIC S. aureus (MRSA) USA300 (S. aureus; USA300, Strain No. MP-549): 4 µg/mL (≈ 4.21 µM)
- MIC S. aureus (MRSA) ermA phenotype (S. aureus; ermA phenotype, Strain No. MP-620 UNT-146): >64 µg/mL
- MIC P. aeruginosa ATCC27853 (P. aeruginosa; ATCC27853, Strain No. MP-3): 64 µg/mL (≈ 67.3 µM)
- MIC P. aeruginosa PAO1 (P. aeruginosa; PAO1, Strain No. MP-7): >64 µg/mL
- MIC P. aeruginosa PAO1:mex (P. aeruginosa; PAO1:mex, Strain No. MP-8): 16 µg/mL (≈ 16.8 µM)
- MIC S. pyogenes ATCC19615 (S. pyogenes; ATCC19615, Strain No. MP-19): <0.03 µg/mL
- MIC S. pyogenes mac resistant (S. pyogenes; mac resistant, Strain No. MP-625 UNT-014): 0.5 µg/mL (≈ 0.526 µM)
- MIC A. baumannii ATCC19606 (A. baumannii; ATCC19606, Strain No. MP-15): 64 µg/mL (≈ 67.3 µM)
- MIC A. baumannii clinical (A. baumannii; Strain No. MP576): >64 µg/mL
- MIC A. baumannii clinical (A. baumannii; Strain No. MP577): 16 µg/mL (≈ 16.8 µM)
- MIC K. pneumoniae ATCC10031 (K. pneumoniae; ATCC10031, Strain No. MP-14): 4 µg/mL (≈ 4.21 µM)
- MIC K. pneumoniae clinical (K. pneumoniae; Strain No. MP546): 64 µg/mL (≈ 67.3 µM)
- MIC K. pneumoniae clinical (K. pneumoniae; Strain No. MP548): 32 µg/mL (≈ 33.6 µM)

SMILES: CCC1OC(=O)C(C)C(=O)C(C)C(OC2OC(C)CC(N(C)CCO)C2O)C(C)(OC)CC(C)CNC(C)C2N(CCCCn3cc(-c4cccc(N)c4)nn3)C(=O)OC12C (stereo not drawn) [FSM-120418]
- MIC (E. coli; [1]): 8 µg/mL (≈ 9.32 µM)
- MIC (E. coli; [2]): 8 µg/mL (≈ 9.32 µM)
- MIC (E. coli; [3]): >64 µg/mL
- MIC (E. coli; [4]): 1 µg/mL (≈ 1.17 µM)
- MIC (S. aureus; [5]): 16 µg/mL (≈ 18.6 µM)
- MIC (S. aureus; [6]): 16 µg/mL (≈ 18.6 µM)
- MIC (S. aureus; [7]): >64 µg/mL
- MIC (S. aureus; [8]): 16 µg/mL (≈ 18.6 µM)
- MIC (P. aeruginosa; [9]): >64 µg/mL
- MIC (P. aeruginosa; [10]): >64 µg/mL
- MIC (P. aeruginosa; [11]): 32 µg/mL (≈ 37.3 µM)
- MIC (A. baumannii; [12]): 16 µg/mL (≈ 18.6 µM)
- MIC (A. baumannii; [13]): 32 µg/mL (≈ 37.3 µM)
- MIC (A. baumannii; [14]): >64 µg/mL
- MIC (K. pneumoniae; [15]): 8 µg/mL (≈ 9.32 µM)
- MIC (K. pneumoniae; [16]): 64 µg/mL (≈ 74.6 µM)
- MIC (K. pneumoniae; [17]): >64 µg/mL

SMILES: CCC1OC(=O)C(C)C(=O)C(C)C(OC2OC(C)CC(N(C)CCO)C2O)C(C)(OC)CC(C)CN(C)C(C)C2N(CCCCn3cc(-c4cccc(N)c4)nn3)C(=O)OC12C (stereo not drawn) [FSM-120419]
- MIC (E. coli; [1]): >64 µg/mL
- MIC (E. coli; [2]): >64 µg/mL
- MIC (E. coli; [3]): >64 µg/mL
- MIC (E. coli; [4]): 4 µg/mL (≈ 4.59 µM)
- MIC (S. aureus; [5]): 32 µg/mL (≈ 36.7 µM)
- MIC (S. aureus; [6]): 32 µg/mL (≈ 36.7 µM)
- MIC (S. aureus; [7]): >64 µg/mL
- MIC (S. aureus; [8]): 32 µg/mL (≈ 36.7 µM)
- MIC (P. aeruginosa; [9]): >64 µg/mL
- MIC (P. aeruginosa; [10]): >64 µg/mL
- MIC (P. aeruginosa; [11]): >64 µg/mL
- MIC (A. baumannii; [12]): >64 µg/mL
- MIC (A. baumannii; [13]): >64 µg/mL
- MIC (A. baumannii; [14]): >64 µg/mL
- MIC (K. pneumoniae; [15]): 16 µg/mL (≈ 18.3 µM)
- MIC (K. pneumoniae; [16]): >64 µg/mL
- MIC (K. pneumoniae; [17]): >64 µg/mL

SMILES: CCC1OC(=O)C(C)C(=O)C(C)C(OC2OC(C)CC(N3CCC(O)C3)C2O)C(C)(OC)CC(C)CNC(C)C2N(CCCCn3cc(-c4cccc(N)c4)nn3)C(=O)OC12C (stereo not drawn) [FSM-120416]
- MIC (E. coli; [1]): >64 µg/mL
- MIC (E. coli; [2]): >64 µg/mL
- MIC (E. coli; [3]): >64 µg/mL
- MIC (E. coli; [4]): 8 µg/mL (≈ 9.19 µM)
- MIC (S. aureus; [5]): >64 µg/mL
- MIC (S. aureus; [6]): >64 µg/mL
- MIC (S. aureus; [7]): >64 µg/mL
- MIC (S. aureus; [8]): >64 µg/mL
- MIC (P. aeruginosa; [9]): >64 µg/mL
- MIC (P. aeruginosa; [10]): >64 µg/mL
- MIC (P. aeruginosa; [11]): >64 µg/mL
- MIC (A. baumannii; [12]): >64 µg/mL
- MIC (A. baumannii; [13]): >64 µg/mL
- MIC (A. baumannii; [14]): >64 µg/mL
- MIC (K. pneumoniae; [15]): 32 µg/mL (≈ 36.8 µM)
- MIC (K. pneumoniae; [16]): >64 µg/mL
- MIC (K. pneumoniae; [17]): >64 µg/mL
